Assay results reported in ChEMBL document CHEMBL5126624, “Targeted Isolation of Anti-inflammatory Lignans from Justicia aequilabris by Molecular Networking Approach” (J Nat Prod, 2022).
pIC50: −log10 of the molar value.

Assays:
[1] = system: RAW264.7; assay: Antiinflammatory activity in mouse RAW264.7 cells assessed as decrease in IFN-gamma and LPS-induced nitric oxide production after 24 hrs by ELISA; type: functional, cell-based; conditions: RAW264.7, 24 h
[2] = system: RAW264.7; assay: Antiinflammatory activity in mouse RAW264.7 cells assessed as decrease in IFN-gamma and LPS-induced IL-1beta production by measuring IL-1beta level at 16.7 uM after 24 hrs by ELISA (reference value: 73.3 +/- 1.8 pg/mg); type: functional
[3] = system: RAW264.7; assay: Antiinflammatory activity in mouse RAW264.7 cells assessed as decrease in IFN-gamma and LPS-induced IL-1beta production by measuring IL-1beta level at 8.4 uM after 24 hrs by ELISA (reference value: 73.3 +/- 1.8 pg/mg); type: functional
[4] = system: RAW264.7; assay: Antiinflammatory activity in mouse RAW264.7 cells assessed as decrease in IFN-gamma and LPS-induced IL-1beta production by measuring IL-1beta level at 4.2 uM after 24 hrs by ELISA (reference value: 73.3 +/- 1.8 pg/mg); type: functional
[5] = system: RAW264.7; assay: Antiinflammatory activity in mouse RAW264.7 cells assessed as decrease in IFN-gamma and LPS-induced IL-1beta production by measuring IL-1beta level at 2.1 uM after 24 hrs by ELISA (reference value: 73.3 +/- 1.8 pg/mg); type: functional
[6] = system: RAW264.7; assay: Antiinflammatory activity in mouse RAW264.7 cells assessed as maximum decrease in IFN-gamma and LPS-induced IL-1beta production after 24 hrs by ELISA; type: functional
[7] = Cytotoxicity in LPS-stimulated mouse RAW264.7 cells assessed as reduction in cell viability incubated for […] by alamar blue dye based colorimetric assay; type: toxicity; conditions: LPS-stimulated RAW264.7 cells
[8] = system: RAW264.7; assay: Antiinflammatory activity in mouse RAW264.7 cells assessed as decrease in IFN-gamma and LPS-induced IL-1beta production by measuring IL-1beta level at 50 uM after 24 hrs by ELISA (reference value: 73.3 +/- 1.8 pg/mg); type: functional
[9] = system: RAW264.7; assay: Antiinflammatory activity in mouse RAW264.7 cells assessed as decrease in IFN-gamma and LPS-induced IL-1beta production by measuring IL-1beta level at 25 uM after 24 hrs by ELISA (reference value: 73.3 +/- 1.8 pg/mg); type: functional
[10] = system: RAW264.7; assay: Antiinflammatory activity in mouse RAW264.7 cells assessed as decrease in IFN-gamma and LPS-induced IL-1beta production by measuring IL-1beta level at 12.5 uM after 24 hrs by ELISA (reference value: 73.3 +/- 1.8 pg/mg); type: functional
[11] = system: RAW264.7; assay: Antiinflammatory activity in mouse RAW264.7 cells assessed as decrease in IFN-gamma and LPS-induced IL-1beta production by measuring IL-1beta level at 6.3 uM after 24 hrs by ELISA (reference value: 73.3 +/- 1.8 pg/mg); type: functional
[12] = system: RAW264.7; assay: Antiinflammatory activity in mouse RAW264.7 cells assessed as decrease in IFN-gamma and LPS-induced IL-1beta production at 50 uM after 24 hrs by ELISA; type: functional
[13] = system: RAW264.7; assay: Antiinflammatory activity in mouse RAW264.7 cells assessed as decrease in IFN-gamma and LPS-induced IL-1beta production at 6.7 uM after 24 hrs by ELISA; type: functional
[14] = system: RAW264.7; assay: Antiinflammatory activity in mouse RAW264.7 cells assessed as decrease in IFN-gamma and LPS-induced IL-1beta production at 25 uM after 24 hrs by ELISA; type: functional
[15] = system: RAW264.7; assay: Antiinflammatory activity in mouse RAW264.7 cells assessed as decrease in IFN-gamma and LPS-induced IL-1beta production by measuring IL-1beta level at 3.1 uM after 24 hrs by ELISA (reference value: 73.3 +/- 1.8 pg/mg); type: functional
[16] = system: RAW264.7; assay: Antiinflammatory activity in mouse RAW264.7 cells assessed as decrease in IFN-gamma and LPS-induced IL-1beta production by measuring IL-1beta level at 10 uM after 24 hrs by ELISA (reference value: 73.3 +/- 1.8 pg/mg); type: functional

Compound | pIC50 [1] | Activity [2] [pg/mg] | Activity [3] [pg/mg] | Activity [4] [pg/mg] | Activity [5] [pg/mg] | CC50 at 24 h [7] [µM] | Activity [9] [pg/mg] | Activity [10] [pg/mg] | Activity [11] [pg/mg] | other results
COc1cc(C[C@H]2COC(=O)[C@@H](C(=O)O)[C@@H](C)[C@@H](C(=O)O)C(=O)OC[C@@H]2Cc2ccc(O)c(OC)c2)ccc1O | < 3.70 |  |  |  |  | 23.4 | 70.2 | 71.3 | 73.3 | Activity [8]: 56 pg/mg; Imax [12]: 23.5%
COc1cc(C[C@@H](CO)[C@H](COC(=O)CC(=O)O)Cc2ccc(O)c(OC)c2)ccc1O | 3.76 |  |  |  |  | 9.1 | 53.3 | 66 | 71.1 | Imax [14]: 27.3%; Activity [15]: 73.1 pg/mg
C[C@@H]1C[C@H]2[C@@H]3CCC4=CC(=O)C=C[C@]4(C)[C@@]3(F)[C@@H](O)C[C@]2(C)[C@@]1(O)C(=O)CO [DEXAMETHASONE] |  |  |  |  |  | 4.4 |  |  |  | Imax [16]: 47.9%

Further lines, with some results ahead:

pIC50 [1] | Compound | Activity [2] [pg/mg] | Activity [3] [pg/mg] | Activity [4] [pg/mg] | Activity [5] [pg/mg] | CC50 at 24 h [7] [µM] | Activity [9] [pg/mg] | Activity [10] [pg/mg] | Activity [11] [pg/mg] | other results
3.88 | COc1cc(C[C@@H](CO)[C@H](CO)Cc2ccc(O)c(OC)c2)ccc1O [(+)-SECOISOLARICIRESINOL] | 73 | 72.8 | 73 | 74.9 |  |  |  |  | Imax [6]: 0%
4.04 | C/C=C/C(=O)OC[C@H](Cc1ccc(O)c(OC)c1)[C@H](CO)Cc1ccc(O)c(OC)c1 | 49.4 | 65.7 | 69.8 | 74.1 | 7.3 |  |  |  | Imax [13]: 32.5%
5.96 | CN(C)c1ccc(C(=C2C=CC(=[N+](C)C)C=C2)c2ccc(N(C)C)cc2)cc1 [GENTIAN VIOLET] |  |  |  |  |  |  |  |  | 
